{
  "source": "paper PMC6896485",
  "about": "“Aryl derivatives of 3H-1,2-benzoxathiepine 2,2-dioxide as carbonic anhydrase inhibitors” (Journal of Enzyme Inhibition and Medicinal Chemistry, 2019)",
  "key": {"hCA IX": {"molecular_target": "T1, hCA IX (Homo sapiens, UniProt Q16790)", "T1 construct": "gene CA9; recombinant, obtained in-house", "test": "stopped-flow CO2 hydration", "format": "biochemical", "details": "read-out: KI (nM) ^* / CA IX", "from_the_text": "stopped-flow CO2 hydration on hCA IX"}, "hCA XII": {"molecular_target": "T2, hCA XII (Homo sapiens, UniProt O43570)", "T2 construct": "gene CA12; recombinant, obtained in-house", "T2 sequence (O43570 25-354)": "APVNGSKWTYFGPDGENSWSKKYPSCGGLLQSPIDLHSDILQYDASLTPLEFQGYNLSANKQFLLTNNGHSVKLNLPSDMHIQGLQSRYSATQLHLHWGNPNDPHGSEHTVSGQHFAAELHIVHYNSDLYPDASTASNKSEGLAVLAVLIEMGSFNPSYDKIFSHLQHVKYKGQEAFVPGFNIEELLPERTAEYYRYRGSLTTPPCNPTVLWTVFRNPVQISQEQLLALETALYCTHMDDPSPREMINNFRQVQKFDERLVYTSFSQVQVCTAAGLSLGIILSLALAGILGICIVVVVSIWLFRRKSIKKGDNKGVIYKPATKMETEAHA", "test": "stopped-flow CO2 hydration", "format": "biochemical", "details": "read-out: KI (nM) ^* / CA XII", "from_the_text": "(§1) stopped-flow CO2 hydration on hCA XII"}, "[1]": {"test": "stopped-flow CO2 hydration", "format": "biochemical, Homo sapiens", "details": "read-out: KI (nM) ^* / CA I", "from_the_text": "as §1"}, "[2]": {"details": "CO2 […], Hepes pH […] Na2SO4, […] h preincubation at room temperature"}},
  "note": "Read-outs that look alike come from different tables or passages of the source.",
  "data": [
    {"smiles": "O=S1(=O)CC=Cc2ccc(Br)cc2O1", "note": "[compound 20, 8-Bromo-3H-1,2-benzoxathiepine 2,2-dioxide]", "values": [
      {"measurement": "Ki", "setting": "hCA IX", "result": 47.5, "unit": "nM"},
      {"measurement": "Ki", "setting": "hCA XII", "result": 133, "unit": "nM"}
    ]},
    {"smiles": "O=S1(=O)CC=Cc2cccc(-c3ccc(F)cc3)c2O1", "note": "[compound 32, 9–(4-Fluorophenyl)-3H-1,2-benzoxathiepine 2,2-dioxide]", "values": [
      {"measurement": "Ki", "setting": "hCA IX", "result": 33700, "unit": "nM"},
      {"measurement": "Ki", "setting": "[1]", "result": "> 100000", "unit": "nM"}
    ]},
    {"smiles": "CCOC(=O)c1ccc(-c2cccc3c2OS(=O)(=O)CC=C3)cc1", "note": "[compound 34, 9–(4-(Ethoxycarbonyl)phenyl)-3H-1,2-benzoxathiepine 2,2-dioxide]", "values": [
      {"measurement": "Ki", "setting": "hCA IX", "result": 16400, "unit": "nM"},
      {"measurement": "Ki", "setting": "[1]", "result": "> 100000", "unit": "nM"}
    ]},
    {"smiles": "O=S1(=O)CC=Cc2cccc(-c3ccc(C(F)(F)F)cc3)c2O1", "note": "[compound 33, 9–(4-(Trifluoromethyl)phenyl)-3H-1,2-benzoxathiepine 2,2-dioxide]", "values": [
      {"measurement": "Ki", "setting": "hCA IX", "result": 47100, "unit": "nM"},
      {"measurement": "Ki", "setting": "[1]", "result": "> 100000", "unit": "nM"}
    ]},
    {"smiles": "O=S1(=O)CC=Cc2ccc(-c3ccc(F)cc3)cc2O1", "note": "[compound 23, 8–(4-Fluorophenyl)-3H-1,2-benzoxathiepine 2,2-dioxide]", "values": [
      {"measurement": "Ki", "setting": "hCA IX", "result": 95.2, "unit": "nM"},
      {"measurement": "Ki", "setting": "hCA XII; [2]", "result": 77.9, "unit": "nM"}
    ]},
    {"smiles": "O=S1(=O)CC=Cc2cc(-c3ccc(C(F)(F)F)cc3)ccc2O1", "note": "[compound 11, 7–(4-(Trifluoromethyl)phenyl)-3H-1,2-benzoxathiepine 2,2-dioxide]", "values": [
      {"measurement": "Ki", "setting": "hCA IX", "result": 221, "unit": "nM"},
      {"measurement": "Ki", "setting": "hCA XII", "result": 4020, "unit": "nM"}
    ]},
    {"smiles": "O=S1(=O)CC=Cc2cccc(Br)c2O1", "note": "[compound 29, 9-Bromo-3H-1,2-benzoxathiepine 2,2-dioxide]", "values": [
      {"measurement": "Ki", "setting": "hCA IX", "result": 755, "unit": "nM"},
      {"measurement": "Ki", "setting": "hCA XII", "result": 3820, "unit": "nM"}
    ]},
    {"smiles": "O=S1(=O)CC=Cc2ccc(-c3ccccc3)cc2O1", "note": "[compound 21, 8-Phenyl-3H-1,2-benzoxathiepine 2,2-dioxide]", "values": [
      {"measurement": "Ki", "setting": "hCA IX", "result": 105, "unit": "nM"},
      {"measurement": "Ki", "setting": "hCA XII", "result": 473, "unit": "nM"}
    ]},
    {"smiles": "O=S1(=O)CC=Cc2cccc(-c3ccccc3)c2O1", "note": "[compound 30, 9-Phenyl-3H-1,2-benzoxathiepine 2,2-dioxide]", "values": [
      {"measurement": "Ki", "setting": "hCA IX", "result": 21100, "unit": "nM"},
      {"measurement": "Ki", "setting": "[1]", "result": "> 100000", "unit": "nM"}
    ]},
    {"smiles": "O=S1(=O)CC=Cc2cc(I)ccc2O1", "note": "[compound 7, 7-Iodo-3H-1,2-benzoxathiepine 2,2-dioxide]", "values": [
      {"measurement": "Ki", "setting": "hCA IX", "result": 66.2, "unit": "nM"},
      {"measurement": "Ki", "setting": "hCA XII", "result": 455, "unit": "nM"}
    ]},
    {"smiles": "COc1ccc(-c2ccc3c(c2)OS(=O)(=O)CC=C3)cc1", "note": "[compound 22, 8–(4-Methoxyphenyl)-3H-1,2-benzoxathiepine 2,2-dioxide]", "values": [
      {"measurement": "Ki", "setting": "hCA IX", "result": 63.1, "unit": "nM"},
      {"measurement": "Ki", "setting": "hCA XII", "result": 169, "unit": "nM"}
    ]},
    {"smiles": "O=S1(=O)CC=Cc2ccc(-c3ccc(C(F)(F)F)cc3)cc2O1", "note": "[compound 24, 8–(4-(Trifluoromethyl)phenyl)-3H-1,2-benzoxathiepine 2,2-dioxide]", "values": [
      {"measurement": "Ki", "setting": "hCA IX; [2]", "result": 44, "unit": "nM"},
      {"measurement": "Ki", "setting": "hCA XII", "result": 248, "unit": "nM"}
    ]},
    {"smiles": "CCOC(=O)c1ccc(-c2ccc3c(c2)C=CCS(=O)(=O)O3)cc1", "note": "[compound 12, 7–(4-(Ethoxycarbonyl)phenyl)-3H-1,2-benzoxathiepine 2,2-dioxide]", "values": [
      {"measurement": "Ki", "setting": "hCA IX", "result": 621, "unit": "nM"},
      {"measurement": "Ki", "setting": "hCA XII", "result": 2400, "unit": "nM"}
    ]},
    {"smiles": "O=S1(=O)CC=Cc2cc(-c3ccc(F)cc3)ccc2O1", "note": "[compound 10, 7–(4-Fluorophenyl)-3H-1,2-benzoxathiepine 2,2-dioxide]", "values": [
      {"measurement": "Ki", "setting": "hCA IX", "result": 331, "unit": "nM"},
      {"measurement": "Ki", "setting": "hCA XII", "result": 890, "unit": "nM"}
    ]},
    {"smiles": "COc1ccc(-c2cccc3c2OS(=O)(=O)CC=C3)cc1", "note": "[compound 31, 9–(4-Methoxyphenyl)-3H-1,2-benzoxathiepine 2,2-dioxide]", "values": [
      {"measurement": "Ki", "setting": "hCA IX", "result": 60900, "unit": "nM"},
      {"measurement": "Ki", "setting": "[1]", "result": "> 100000", "unit": "nM"}
    ]},
    {"smiles": "COc1ccc(-c2ccc3c(c2)C=CCS(=O)(=O)O3)cc1", "note": "[compound 9, 7–(4-Methoxyphenyl)-3H-1,2-benzoxathiepine 2,2-dioxide]", "values": [
      {"measurement": "Ki", "setting": "hCA IX", "result": 408, "unit": "nM"},
      {"measurement": "Ki", "setting": "hCA XII", "result": 2930, "unit": "nM"}
    ]},
    {"smiles": "CCOC(=O)c1ccc(-c2ccc3c(c2)OS(=O)(=O)CC=C3)cc1", "note": "[compound 25, 8–(4-(Ethoxycarbonyl)phenyl)-3H-1,2-benzoxathiepine 2,2-dioxide]", "values": [
      {"measurement": "Ki", "setting": "hCA IX", "result": 79.8, "unit": "nM"},
      {"measurement": "Ki", "setting": "hCA XII", "result": 289, "unit": "nM"}
    ]},
    {"smiles": "O=S1(=O)CC=Cc2cc(-c3ccccc3)ccc2O1", "note": "[compound 8, 7-Phenyl-3H-1,2-benzoxathiepine 2,2-dioxide]", "values": [
      {"measurement": "Ki", "setting": "hCA IX", "result": 655, "unit": "nM"},
      {"measurement": "Ki", "setting": "hCA XII", "result": 1380, "unit": "nM"}
    ]}
  ]
}
